For this test, the target named is DM2 (RNA7)-MBNL-1 complex. The test is classed as biochemical. As to conditions: ligand added to well containing immobilized RNA7, then MBNL-1.

Each structure is given as a SMILES string.

By IC50 is commonly meant the concentration at which inhibition is half-maximal. `C#CCCCC(=O)NC[C@@H]1O[C@@H](O[C@H]2[C@H](O)[C@@H](O[C@@H]3O[C@@H](CO)[C@H](O)[C@@H](N)[C@@H]3O)[C@H](N)C[C@@H]2N)[C@@H](O)[C@H](O)[C@H]1O` [Compound 1, 6′-N-5-hexynoate kanamycin A] displayed an IC50 of 220 µM.

Source of the values: PMC2748256 (ACS chemical biology, 2009).
